Assay results published in the NIST ThermoML archive (doi:10.1016/j.fluid.2010.02.010).
Numbers after ± are expanded uncertainties.

Experiment: activity coefficient (dimensionless); of the first substance listed, at infinite dilution; xn = mol fraction of the nth substance listed
Conditions: 101 kPa, Liquid, x1 = 0

What does the source list for `C=CCCC` [1-pentene] + CCCCCCn1cc[n+](C)c1.O=S(=O)([O-])C(F)(F)F?
activity coefficient (303.18 K, dilutor technique): 4.62 ± 0.23; activity coefficient (313.15 K, dilutor technique): 4.58 ± 0.23; activity coefficient (323.16 K, dilutor technique): 4.54 ± 0.23; activity coefficient (333.15 K, dilutor technique): 4.51 ± 0.23

Which results are given for `C=CCCC` [1-pentene] + CCCCn1cc[n+](C)c1.O=S(=O)([O-])C(F)(F)F?
activity coefficient (303.45 K, Chromatography): 10.1 ± 0.69; activity coefficient (313.15 K, Chromatography): 9.69 ± 0.66; activity coefficient (313.15 K, Dilutor technique): 9.55 ± 0.48; activity coefficient (323.15 K, Chromatography): 9.48 ± 0.65; activity coefficient (323.15 K, Dilutor technique): 9.34 ± 0.47; activity coefficient (333.15 K, Chromatography): 9.18 ± 0.63; activity coefficient (333.18 K, Dilutor technique): 9.06 ± 0.45

What does the source list for `CCCCCCC` [heptane] + CCCCCCCCn1cc[n+](C)c1.O=S(=O)([O-])C(F)(F)F?
activity coefficient (303.16 K, dilutor technique): 9.59 ± 0.48; activity coefficient (313.14 K, dilutor technique): 9.42 ± 0.47; activity coefficient (323.14 K, dilutor technique): 9.26 ± 0.46; activity coefficient (333.11 K, dilutor technique): 9.06 ± 0.45

Which results are given for `CCCCCCC` [heptane] + CCCCCCn1cc[n+](C)c1.O=S(=O)([O-])C(F)(F)F?
activity coefficient (303.16 K, dilutor technique): 19.2 ± 0.96; activity coefficient (313.18 K, dilutor technique): 18 ± 0.9; activity coefficient (323.16 K, dilutor technique): 17.4 ± 0.87; activity coefficient (333.14 K, dilutor technique): 16.6 ± 0.83

With `CCCCCCC` [heptane] + CCCCn1cc[n+](C)c1.O=S(=O)([O-])C(F)(F)F as the compound, how does the activity coefficient (303.12 K, Dilutor technique) read?
The activity coefficient was 45 ± 2.2.

What about the activity coefficient (303.45 K, Chromatography) of the same compound?
The activity coefficient was 45 ± 3.1.

And the activity coefficient (313.15 K, Chromatography)?
The activity coefficient was 42.4 ± 2.9.

And the activity coefficient (313.15 K, Dilutor technique)?
Its activity coefficient is 42.3 ± 2.1.

What about the activity coefficient (323.12 K, Dilutor technique) of the same compound?
Its activity coefficient is 39.8 ± 2.

And the activity coefficient (323.14 K, Chromatography)?
Its activity coefficient is 39.8 ± 2.7.

And the activity coefficient (333.15 K, Chromatography)?
The activity coefficient was 37 ± 2.5.

And the activity coefficient (333.21 K, Dilutor technique)?
Its activity coefficient is 36.9 ± 1.9.

Which activity coefficient (303.13 K, dilutor technique) does the source give for `C=CCCCC` [hex-1-ene] + CCCCCCCCn1cc[n+](C)c1.O=S(=O)([O-])C(F)(F)F here?
Its activity coefficient is 4.68 ± 0.23.

And the activity coefficient (313.13 K, dilutor technique)?
The activity coefficient was 4.61 ± 0.23.

What about the activity coefficient (323.16 K, dilutor technique) of the same compound?
The activity coefficient was 4.57 ± 0.23.

What about the activity coefficient (333.16 K, dilutor technique) of the same compound?
Its activity coefficient is 4.53 ± 0.23.

With `C=CCCCC` [hex-1-ene] + CCCCCCn1cc[n+](C)c1.O=S(=O)([O-])C(F)(F)F as the compound, how does the activity coefficient (303.18 K, dilutor technique) read?
Its activity coefficient is 7.4 ± 0.37.

And the activity coefficient (313.15 K, dilutor technique)?
Its activity coefficient is 7.23 ± 0.36.

And the activity coefficient (323.16 K, dilutor technique)?
Its activity coefficient is 7.03 ± 0.35.

What about the activity coefficient (333.15 K, dilutor technique) of the same compound?
Its activity coefficient is 6.86 ± 0.34.

Which results are given for `C=CCCCC` [hex-1-ene] + CCCCn1cc[n+](C)c1.O=S(=O)([O-])C(F)(F)F?
activity coefficient (303.17 K, Dilutor technique): 14.3 ± 0.71; activity coefficient (303.45 K, Chromatography): 14.4 ± 0.98; activity coefficient (313.15 K, Dilutor technique): 13.8 ± 0.69; activity coefficient (313.36 K, Chromatography): 14 ± 0.96; activity coefficient (323.14 K, Chromatography): 13.5 ± 0.92; activity coefficient (323.15 K, Dilutor technique): 13.5 ± 0.67; activity coefficient (333.14 K, Chromatography): 13 ± 0.89; activity coefficient (333.18 K, Dilutor technique): 12.9 ± 0.65

Which results are given for `CCCCCC` [hexane] + CCCCCCCCn1cc[n+](C)c1.O=S(=O)([O-])C(F)(F)F?
activity coefficient (303.15 K, dilutor technique): 7.25 ± 0.36; activity coefficient (323.16 K, dilutor technique): 7.15 ± 0.36; activity coefficient (333.18 K, dilutor technique): 7.09 ± 0.35

Which results are given for `CCCCCC` [hexane] + CCCCCCn1cc[n+](C)c1.O=S(=O)([O-])C(F)(F)F?
activity coefficient (303.11 K, dilutor technique): 12.8 ± 0.64; activity coefficient (313.16 K, dilutor technique): 11.9 ± 0.6; activity coefficient (323.17 K, dilutor technique): 11.4 ± 0.57; activity coefficient (333.17 K, dilutor technique): 10.9 ± 0.55

For `CCCCCC` [hexane] + CCCCn1cc[n+](C)c1.O=S(=O)([O-])C(F)(F)F, which activity coefficient (303.16 K, Dilutor technique) is on record?
Its activity coefficient is 29 ± 1.4.

What about the activity coefficient (303.45 K, Chromatography) of the same compound?
The activity coefficient was 29.8 ± 2.

What about the activity coefficient (313.15 K, Chromatography) of the same compound?
The activity coefficient was 28.4 ± 1.9.

What about the activity coefficient (313.19 K, Dilutor technique) of the same compound?
Its activity coefficient is 27.7 ± 1.4.

What about the activity coefficient (323.14 K, Chromatography) of the same compound?
Its activity coefficient is 26.5 ± 1.8.

What about the activity coefficient (323.16 K, Dilutor technique) of the same compound?
Its activity coefficient is 25.9 ± 1.3.

And the activity coefficient (333.15 K, Chromatography)?
Its activity coefficient is 24.8 ± 1.7.

And the activity coefficient (333.22 K, Dilutor technique)?
Its activity coefficient is 24.5 ± 1.2.

With `C=CCCCCCC` [oct-1-ene] + CCCCCCCCn1cc[n+](C)c1.O=S(=O)([O-])C(F)(F)F as the compound, how does the activity coefficient (303.21 K, dilutor technique) read?
The activity coefficient was 8 ± 0.4.

What about the activity coefficient (313.15 K, dilutor technique) of the same compound?
The activity coefficient was 7.86 ± 0.39.

And the activity coefficient (323.14 K, dilutor technique)?
The activity coefficient was 7.79 ± 0.39.

And the activity coefficient (333.12 K, dilutor technique)?
The activity coefficient was 7.66 ± 0.38.

Which results are given for `C=CCCCCCC` [oct-1-ene] + CCCCCCn1cc[n+](C)c1.O=S(=O)([O-])C(F)(F)F?
activity coefficient (303.14 K, Chromatography): 15.4 ± 1.1; activity coefficient (303.16 K, dilutor technique): 15 ± 0.75; activity coefficient (313.15 K, Chromatography): 15 ± 1; activity coefficient (313.17 K, dilutor technique): 14.5 ± 0.73; activity coefficient (323.15 K, Chromatography): 14.6 ± 1; activity coefficient (323.15 K, dilutor technique): 14.2 ± 0.71; activity coefficient (333.14 K, Chromatography): 14.3 ± 0.98; activity coefficient (333.18 K, dilutor technique): 13.7 ± 0.69

What does the source list for `C=CCCCCCC` [oct-1-ene] + CCCCn1cc[n+](C)c1.O=S(=O)([O-])C(F)(F)F?
activity coefficient (303.17 K, Dilutor technique): 33.3 ± 0.67; activity coefficient (303.45 K, Chromatography): 33.7 ± 2.3; activity coefficient (313.13 K, Dilutor technique): 31.5 ± 0.63; activity coefficient (313.15 K, Chromatography): 32 ± 2.2; activity coefficient (323.14 K, Chromatography): 30.6 ± 2.1; activity coefficient (323.16 K, Dilutor technique): 29.9 ± 0.6; activity coefficient (333.15 K, Chromatography): 29.3 ± 2; activity coefficient (333.16 K, Dilutor technique): 29 ± 0.58

Which activity coefficient (303.16 K, dilutor technique) does the source give for `CCCCCCCC` [octane] + CCCCCCCCn1cc[n+](C)c1.O=S(=O)([O-])C(F)(F)F here?
The activity coefficient was 12.6 ± 0.63.

And the activity coefficient (313.14 K, dilutor technique)?
The activity coefficient was 12.2 ± 0.61.

What about the activity coefficient (323.14 K, dilutor technique) of the same compound?
The activity coefficient was 12 ± 0.6.

And the activity coefficient (333.11 K, dilutor technique)?
Its activity coefficient is 11.7 ± 0.58.

Which results are given for `CCCCCCCC` [octane] + CCCCCCn1cc[n+](C)c1.O=S(=O)([O-])C(F)(F)F?
activity coefficient (303.14 K, Chromatography): 27.2 ± 1.9; activity coefficient (303.16 K, dilutor technique): 27.1 ± 1.4; activity coefficient (313.15 K, Chromatography): 25.8 ± 1.8; activity coefficient (313.18 K, dilutor technique): 25.5 ± 1.3; activity coefficient (323.15 K, Chromatography): 24.8 ± 1.7; activity coefficient (323.16 K, dilutor technique): 24.6 ± 1.2; activity coefficient (333.14 K, Chromatography): 23.8 ± 1.6; activity coefficient (333.14 K, dilutor technique): 23.4 ± 1.2

Which results are given for `CCCCCCCC` [octane] + CCCCn1cc[n+](C)c1.O=S(=O)([O-])C(F)(F)F?
activity coefficient (303.12 K, Dilutor technique): 70.3 ± 3.5; activity coefficient (303.15 K, Chromatography): 71.2 ± 4.9; activity coefficient (313.15 K, Dilutor technique): 65.6 ± 3.3; activity coefficient (313.36 K, Chromatography): 65.5 ± 4.5; activity coefficient (323.12 K, Dilutor technique): 60.1 ± 3; activity coefficient (323.15 K, Chromatography): 60.3 ± 4.1; activity coefficient (333.15 K, Chromatography): 55.2 ± 3.8; activity coefficient (333.21 K, Dilutor technique): 55.7 ± 2.8

For `CCCCC` [pentane] + CCCCn1cc[n+](C)c1.O=S(=O)([O-])C(F)(F)F, which activity coefficient (313.19 K, Dilutor technique) is on record?
Its activity coefficient is 18 ± 0.9.

What about the activity coefficient (323.16 K, Dilutor technique) of the same compound?
Its activity coefficient is 17.5 ± 0.87.

And the activity coefficient (333.22 K, Dilutor technique)?
The activity coefficient was 16.8 ± 0.84.
